The test concerns Acinetobacter baumannii ATCC17978. Kind of test: Antimicrobial susceptibility testing: 90% growth inhibitory concentration (IC90) determination, Iso-Sensitest broth. Format: cell-based. In outline:
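A. baumannii ATCC17978 grown in Iso-Sensitest broth across 10 compound concentrations at 35±2 °C.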

Where [1] appears, read: 90% growth inhibitory concentration, Acinetobacter baumannii ATCC17978, Iso-Sensitest broth, OD 600 nm over 16 h, read-out: ATCC17978 IC90.
Where [2] appears, read: Acinetobacter baumannii, ATCC17978, 16 h, read-out: ATCC17978 IC90, 90% growth inhibitory concentration, Acinetobacter baumannii ATCC17978, Iso-Sensitest broth, OD 600 nm over 16 h.

Structures can show the parent of a compound that is named as a salt. Where two headings read alike, the source gives them in different places.

Turning to `Cc1cc(Nc2nccn3c(-c4ccc(Cl)cc4Cl)cnc23)ccc1C(=O)N1CCC(CN)CC1` [Example 108, (4-(aminomethyl)piperidin-1-yl)(4-((3-(2,4-dichlorophenyl)imidazo[1,2-a]pyrazin-8-yl)amino)-2-methylphenyl)methanone], the IC90 under setting [1] was 1300 nM.
On to `COc1ccc(-c2cnc3c(Nc4ccc(C(=O)N5CCC(C(=O)NCCCN6CCC6)CC5)c(C)c4)nccn23)cc1F` [Example 62, N-(3-(azetidin-1-yl)propyl)-1-(4-((3-(3-fluoro-4-methoxyphenyl)imidazo[1,2-a]pyrazin-8-yl)amino)-2-methylbenzoyl)piperidine-4-carboxamide], for which the IC90 under setting [1] was 160 nM.
Regarding `Cc1cc(Nc2nccn3c(-c4ccc(OCCCC#N)c(F)c4F)cnc23)ccc1C(=O)N1CCC(CN)CC1` [Example 120, 4-(4-(8-((4-(4-(aminomethyl)piperidine-1-carbonyl)-3-methylphenyl)amino)imidazo[1,2-a]pyrazin-3-yl)-2,3-difluorophenoxy)butanenitrile], the IC90 under setting [1] was 1000 nM.
On to `Cc1cc(Nc2nccn3c(-c4ccc(OC(F)F)cc4)cnc23)ccc1C(=O)N1CCN(C(=O)[C@@H]2CNCCN2)CC1` [Example 441, [4-[[3-[4-(difluoromethoxy)phenyl]imi-dazo[1,2-a]pyrazin-8-yl]amino]-2-methylphenyl]-[4-[(2S)-piperazine-2-carbonyl]piperazin-1-yl]methanone; hydrochloride], for which, under setting [2], the IC90 came to 1200 nM.
Same read-out and setting: for `COC(=O)CC[C@H](N)C(=O)N1CCN(C(=O)c2ccc(Nc3nccn4c(-c5ccc(OC(F)F)cc5)cnc34)cc2C)CC1` [Example 444, methyl (4S)-4-amino-5-[4-[4-[[3-[4-(difluoromethoxy)phenyl]imi-dazo[1,2-a]pyrazin-8-yl]amino]-2-methylbenzoyl]piperazin-1-yl]-5-oxopentanoate; hydrochloride] the value was 1900 nM; for `Cc1cc(Nc2nccn3c(-c4ccc(OC(F)F)cc4)cnc23)ccc1C(=O)N1CCN(C(=O)[C@H]2CNCCN2)CC1` [Example 508, [4-[[3-[4-(difluoromethoxy)phenyl]imi-dazo[1,2-a]pyrazin-8-yl]amino]-2-methylphenyl]-[4-[(2R)-piperazine-2-carbonyl]piperazin-1-yl]methanone; hydrochloride], 530 nM.
With `COc1ccc(-c2cnc3c(Nc4ccc(C(=O)N5CCN(C(=O)[C@@H]6CCNC6)CC5)c(C)c4)nccn23)c(F)c1F` [Example 202, (R)-(4-(4-((3-(2,3-difluoro-4-methoxyphenyl)imidazo[1,2-a]pyrazin-8-yl)amino)-2-methylbenzoyl)piperazin-1-yl) (pyrrolidin-3-yl)methanone hydrochloride], under setting [1], the IC90 was determined as 93 nM.
As to `Cc1cc(Nc2nccn3c(-c4ccc(OC(F)F)cc4)cnc23)ccc1C(=O)N1CCC(C(=O)NC[C@H]2CNC(=O)O2)CC1` [Example 298, 1-[4-[[3-[4-(difluoromethoxy)phenyl]imi-dazo[1,2-a]pyrazin-8-yl]amino]-2-methylbenzoyl]-N-[[(5S)-2-oxo-1,3-oxazolidin-5-yl]methyl]piperidine-4-carboxamide], the IC90 under setting [2] was determined as 200 nM.
For the compound `COc1ccc(-c2cnc3c(Nc4ccc(C(=O)N5CCN(C(=O)C6CCNCC6)CC5)c(C)c4)nccn23)c(Cl)c1F` [Example 479, [4-[[3-(2-chloro-3-fluoro-4-methoxyphenyl)imidazo[1,2-a]pyrazin-8-yl]amino]-2-methylphenyl]-[4-(piperidine-4-carbonyl)piperazin-1-yl]methanone; formic acid], under setting [2], the IC90 was determined as 130 nM.
On the same count and under the same terms, under `Cc1cc(Nc2nccn3c(-c4ccc(OC(F)F)cc4)cnc23)ccc1C(=O)N1CCN(C(=O)[C@@H](N)CCCCN)CC1` [Example 452, (2S)-2,6-diamino-1-[4-[4-[[3-[4-(difluoromethoxy)phenyl]imi-dazo[1,2-a]pyrazin-8-yl]amino]-2-methylbenzoyl]piperazin-1-yl]hexan-1-one; hydrochloride] stands 3600 nM.
Consider `COc1ccc(-c2cnc3c(Nc4ccc(C(=O)N5CCC(C(=O)N6C[C@H](O)[C@@H](O)[C@H](O)[C@H]6CO)CC5)c(C)c4)nccn23)c(F)c1F` [Example 566, (1-(4-((3-(2,3-difluoro-4-methoxyphenyl)imidazo[1,2-a]pyrazin-8-yl)amino)-2-methylbenzoyl)piperidin-4-yl)((2R,3R,4R,5S)-3,4,5-trihydroxy-2-(hydroxymethyl)piperidin-1-yl)methanone], for which the IC90 under setting [1] amounted to 370 nM.
Regarding `COc1ccc(-c2cnc3c(Nc4ccc(C(=O)N5CCNC(C6CC6)C5)c(C)c4)nccn23)cc1F` (stereo not drawn) [Example 424, (3-cyclopropylpiperazin-1-yl)-[4-[[3-(3-fluoro-4-methoxyphenyl)imidazo[1,2-a]pyrazin-8-yl]amino]-2-methylphenyl]methanone; hy-drochloride], the IC90 under setting [1] stood at 1200 nM.
As to `Cc1cc(Nc2nccn3c(-c4ccc(OC(F)F)cc4)cnc23)ccc1C(=O)N1CCN(C(=O)N[C@H](C)CN)CC1` [Example 482, N-[(2R)-1-aminopropan-2-yl]-4-[4-[[3-[4-(difluoromethoxy)phenyl]imi-dazo[1,2-a]pyrazin-8-yl]amino]-2-methylbenzoyl]piperazine-1-carboxamide; hydrochlroide], the IC90 under setting [2] came to 170 nM.
On to `Cc1cc(Nc2nccn3c(-c4ccc(OC5(C#N)CC5)c(F)c4F)cnc23)ccc1C(=O)N1CCC(CN)CC1` [Example 115, 1-[4-[8-[4-[4-(aminomethyl)piperidine-1-carbonyl]-3-methyl-anilino]imidazo[1,2-a]pyrazin-3-yl]-2,3-difluoro-phenoxy]cyclopropanecarbonitrile formate], for which the IC90 under setting [1] was determined as 400 nM.
With `Cc1cc(Nc2nccn3c(-c4ccc(OC(F)F)cc4)cnc23)ccc1C(=O)N1CCC(C(=O)N(C)CCO)CC1` [Example 409, 1-[4-[[3-[4-(difluoromethoxy)phenyl]imi-dazo[1,2-a]pyrazin-8-yl]amino]-2-methylbenzoyl]-N-(2-hydroxyethyl)-N-methylpiperidine-4-carboxamide], the IC90 under setting [2] stood at 580 nM.
Take `Cc1cc(Nc2nccn3c(-c4ccc(OCC#N)c(F)c4F)cnc23)ccc1C(=O)N1CCC(C(=O)OC[C@H]2CNCCN2)CC1` [Example 499, formic acid; [(2R)-piperazin-2-yl]methyl 1-[4-[[3-[4-(cyanomethoxy)-2,3-difluorophenyl]imidazo[1,2-a]pyrazin-8-yl]amino]-2-methylbenzoyl]piperidine-4-carboxylate]: under setting [2], the IC90 came out at 360 nM.
As to `Cc1cc(Nc2nccn3c(-c4ccc(OCC#N)c(F)c4F)cnc23)ccc1C(=O)N1CCC(CCN)CC1` [Example 304, 2-[4-[8-[4-[4-(2-aminoethyl)piperidine-1-carbonyl]-3-methylanilino]imidazo[1,2-a]pyrazin-3-yl]-2,3-difluorophenoxy]acetonitrile], under setting [1], the IC90 came out at 110 nM.
For the compound `Cc1cc(Nc2nccn3c(-c4ccc(OC(F)F)cc4)cnc23)ccc1C(=O)N1CCC2(CCCNC2)CC1` [Example 376, 2,9-diazaspiro[5.5]undecan-9-yl-[4-[[3-[4-(difluromethoxy)phenyl]imi-dazo[1,2-a]pyrazin-8-yl]amino]-2-methylphenyl]methanone; hy-drochloride], the IC90 under setting [2] stood at 2000 nM.
In the case of `COc1ccc(-c2cnc3c(Nc4ccc(C(=O)N5CCN(C(=O)C6CNC6)CC5)c(C)c4)nccn23)cc1F` [Example 187, [4-(azetidine-3-carbonyl)piperazin-1-yl]-[4-[[3-(3-fluoro-4-methoxy-phenyl)imidazo[1,2-a]pyrazin-8-yl]amino]-2-methyl-phenyl]methanone hydrochloride], the IC90 under setting [1] was 230 nM.
On the same count and under the same terms, for `COc1ccc(-c2cnc3c(Nc4ccc(C(=O)N5CCN(C(=O)[C@@H]6CCN6)CC5)c(C)c4)nccn23)cc1F` [Example 175, [4-[(2S)-azetidine-2-carbonyl]piperazin-1-yl]-[4-[[3-(3-fluoro-4-methoxy-phenyl)imidazo[1,2-a]pyrazin-8-yl]amino]-2-methyl-phenyl]methanone] the value was 250 nM.
For `Cc1cc(Nc2nccn3c(-c4ccc(OCC#N)c(F)c4F)cnc23)ccc1C(=O)N1CCN(C(=O)[C@@H]2CCNC[C@@H]2O)CC1` (relative stereo) [Example 196, 2-[2,3-difluoro-4-[8-[3-methyl-4-[4-[rac-(3R,4R)-3-hydroxypiperidine-4-carbonyl]piperazine-1-carbonyl]anilino]imidazo [1,2-a]pyrazin-3-yl]phenoxy] acetonitrile formate], the IC90 under setting [1] stood at 270 nM.
Consider `CCc1cc(Nc2nccn3c(-c4ccc(OCC#N)c(F)c4F)cnc23)ccc1C(=O)N1CCN(C(=O)[C@@H]2C[C@@H](O)CN2)CC1` [Example 510, 2-[4-[8-[3-ethyl-4-[4-[(2S,4R)-4-hydroxypyrrolidine-2-carbonyl]piperazine-1-carbonyl]annilino]imidazo[1,2-a]pyrazin-3-yl]-2,3-difluorophenoxy]acetonitrile; formic acid], for which the IC90 under setting [1] stood at 550 nM.
Turning to `CNCCC(=O)N1CCN(C(=O)c2ccc(Nc3nccn4c(-c5ccc(OC(F)F)cc5)cnc34)cc2C)CC1` [Example 332, 1-[4-[4-[[3-[4-(difluoromethoxy)phenyl]imi-dazo[1,2-a]pyrazin-8-yl]amino]-2-methylbenzoyl]piperazin-1-yl]-3-(methylamino)propan-1-one; hydrochloride], the IC90 under setting [2] came out at 410 nM.
Turning to `Cc1cc(Nc2nccn3c(-c4ccc(OC(F)F)cc4)cnc23)ccc1C(=O)N1CCN(C(=O)CNC(=N)N)CC1` [Example 333, 1-[2-[4-[4-[[3-[4-(difluoromethoxy)phenyl]imi-dazo[1,2-a]pyrazin-8-yl]amino]-2-methylbenzoyl]piperazin-1-yl]-2-oxoethyl]guanidine], the IC90 (read-out: ATCC17978 IC90, 90% growth inhibitory concentration, Acinetobacter baumannii ATCC17978, Iso-Sensitest broth, OD 600 nm over 16 h) was 410 nM.

(Values after patent publication US20230011869A1 (Hoffmann-La Roche Inc., priority 2018, published 2023).)
